Test results as given in patent US20230172204A1 (BASF SE, priority 2020, published 2023).
Like-named read-outs stand apart in the source and are kept apart here.

Tests used:
[1] = tested on: Alternaria solani (F129L); test: Micro titer plate test against Alternaria solani causing early blight (ALTESO F129L); format: cell-based
[2] = tested on: Pyricularia oryzae; test: microbe, parasite or virus in culture; format: cell-based; settings: for activity at 0.016 ppm: Pyricularia oryzae, 168 h, read-out: Fungal growth (%) PYRIOR
[3] = tested on: Alternaria solani (wt); test: microbe, parasite or virus in culture; format: cell-based
[4] = tested on: Septoria tritici; test: microbe, parasite or virus in culture; format: cell-based; settings: for activity at 0.25 ppm: Zymoseptoria tritici, 168 h, read-out: Fungal growth (%) SEPTTR
[5] = tested on: Leptosphaeria nodorum; test: Micro titer plate test against Leptosphaeria nodorum causing wheat leaf spots (LEPTNO); format: cell-based; settings: for activity at 0.063 ppm: Parastagonospora nodorum, 168 h, read-out: Fungal growth (%) LEPTNO
[6] = tested on: Phakopsora pachyrhizi (wt); format: in vivo; settings: Qo I-sensitive wt isolate (0% F129L)
[7] = tested on: Cercospora sojina; test: microbe, parasite or virus in culture; format: cell-based; settings: for activity at 4 ppm: Cercospora sojina, 168 h, read-out: Fungal growth (%) CERCSO
[8] = tested on: Pyrenophora teres (wt); test: Micro titer plate test against Pyrenophora teres causing net blotch on barley (PYRNTE wt); format: cell-based; settings: 168 h, read-out: Fungal growth (%) PYRNTE wt
[9] = tested on: Colletotrichum orbiculare; test: Micro titer plate test against Colletotrichum orbiculare causing anthracnose (COLLLA); format: cell-based; settings: for activity at 0.063 ppm: Colletotrichum orbiculare, 168 h, read-out: Fungal growth (%) COLLLA
[10] = tested on: Phakopsora pachyrhizi (F129L); test: Protective control of soybean rust on soybeans (PHAKPA P2); format: in vivo; settings: for % PHAKPA (F129L) Disease level P2 at 4 ppm: protective P2, 4 ppm; for % PHAKPA (F129L) Disease level P2 at 4 ppm / % PHAKPA (F129L) Disease level P2 at 16 ppm: soybean rust F129L; for % PHAKPA (F129L) Disease level P2 at 16 ppm: protective P2, 16 ppm
[11] = tested on: Phakopsora pachyrhizi (F129L); test: Protective control of soybean rust on soybeans (PHAKPA P6); format: in vivo; settings: for % PHAKPA (F129L) Disease level P6 at 4 ppm: protective P6, 4 ppm; for % PHAKPA (F129L) Disease level P6 at 4 ppm / % PHAKPA (F129L) Disease level P6 at 16 ppm: soybean rust F129L; for % PHAKPA (F129L) Disease level P6 at 16 ppm: protective P6, 16 ppm
[12] = tested on: Microdochium nivale; test: Micro titer plate test against Microdochium nivale causing snow mould (MONGNI); format: cell-based; settings: for activity at 0.016 ppm: Microdochium nivale, 168 h, read-out: Fungal growth (%) MONGNI
[13] = Alternaria solani, 168 h, 0.016 ppm, read-out: Fungal growth (%) ALTESO F129L
[14] = Alternaria solani, 168 h, 0.016 ppm, read-out: Fungal growth (%) ALTESO wt
[15] = P2 protective, % diseased leaf area

Compound | activity at 0.016 ppm [1, 13] | activity at 0.016 ppm [2] | activity at 0.016 ppm [3, 14] | activity at 0.25 ppm [4] | activity at 0.063 ppm [5] | activity at 4 ppm ([7]; 4 ppm) | activity at 0.25 ppm [8] | activity at 0.016 ppm [12] | other results
CNC(=O)/C(=N/OC)c1cccc(C)c1CO/N=C(\OC)c1cccc(C(F)(F)F)c1 [drawing 946] | 87% | 39% | 100% | 77% | 95% |  |  |  | 
Cc1cccc(-n2nnn(C)c2=O)c1COc1ccn(-c2ccc(Cl)cc2)n1 [drawing 930] |  |  |  |  |  |  |  |  | PHAKPA P1 DL Disease level (%) ([6]; 0.3 ppm): 78%; PHAKPA P1 DL Disease level (%) ([6]; 1 ppm): 80%; PHAKPA P1 DL Disease level (%) ([6]; 3 ppm): 77%; PHAKPA P1 DL Disease level (%) ([6]; 10 ppm): 48%; PHAKPA P1 DL Disease level (%) ([6]; 30 ppm): 30%; PHAKPA P1 DL Disease level (%) ([6]; 100 ppm): 18%; PHAKPA P1 DL Disease level (%) ([6]; 300 ppm): 5%
CO/N=C(/C(=O)OC)c1cccc(C)c1CO/N=C(\C)c1cccc(OC(F)(F)F)c1 [drawing 934] |  | 100% | 94% |  |  | 33% |  |  | activity at 0.025 ppm ([8]; 0.025 ppm): 84%
CO/N=C(/C(=O)OC)c1cccc(C)c1CO/N=C(\C)c1cccc(OC(F)(F)F)c1 [drawing 938] |  |  |  |  |  |  |  |  | activity at 4 ppm ([1]; Alternaria solani, 168 h, 4 ppm, read-out: Fungal growth (%) ALTESO F129L): 87%; activity at 0.063 ppm [9]: 77%
CNC(=O)/C(=N/OC)c1cccc(C)c1CO/N=C(\C)c1cccc(C)c1 [Ex. 77] |  |  |  |  |  |  |  |  | Fungal growth (%) ALTESO F129L ([1]; 0.016 ppm): 69%; Fungal growth (%) PYRIOR ([2]; 0.016 ppm): 20%; PHAKPA (F129L) Disease level (%) P2 at 4 ppm [10, 15]: 37%; % PHAKPA (F129L) Disease level P2 at 4 ppm [10]: 67%; % PHAKPA (F129L) Disease level P2 at 16 ppm [10]: 4%; Fungal growth (%) ALTESO wt ([3]; 0.016 ppm): 73%; Fungal growth (%) COLLLA ([9]; 0.063 ppm): 39%; Fungal growth (%) SEPTTR ([4]; 0.25 ppm): 49%; PHAKPA (F129L) Disease level (%) P6 at 16 ppm ([11]; P6 protective, 16 ppm, % diseased leaf area): 20%; % PHAKPA (F129L) Disease level P6 at 4 ppm [11]: 40%; % PHAKPA (F129L) Disease level P6 at 16 ppm [11]: 3%
CNC(=O)/C(=N/OC)c1cccc(C)c1CO/N=C(\SC)c1cccc(Cl)c1 [drawing 966] | 90% | 100% |  | 59% |  |  |  |  | activity at 0.25 ppm ([3]; Alternaria solani, 168 h, 0.25 ppm, read-out: Fungal growth (%) ALTESO wt): 43%; activity at 0.063 ppm [9]: 82%
CO/N=C(/C(=O)OC)c1cccc(C)c1CO/N=C(\SC)c1cccc(C)c1 [drawing 953] | 66% |  | 67% |  | 85% | 71% | 59% |  | 
CO/N=C(/C(=O)OC)c1cccc(C)c1CO/N=C(\SC)c1cccc(C)c1 [drawing 950] |  | 87% |  | 61% |  |  |  | 69% | activity at 0.063 ppm [9]: 81%
CO/N=C(/C(=O)OC)c1cccc(C)c1CO/N=C(/c1cccc(Cl)c1)C1CC1 [drawing 964] |  |  |  |  |  | 61% | 69% |  | 
CNC(=O)/C(=N/OC)c1cccc(C)c1CO/N=C(\C)c1cccc(C(F)(F)F)c1 [Ex. 8] |  | 13% | 56% | 57% | 70% |  |  | 54% | Fungal growth (%) CERCSO ([7]; 4 ppm): 27%; activity at 4 ppm [7]: 27%; activity at 0.016 ppm ([1]; Alternaria solani, 168 h, read-out: Fungal growth (%) ALTESO F129L, 0.016 ppm): 55%; PHAKPA (F129L) Disease level (%) P2 at 1 ppm ([10]; P2 protective, 1 ppm, % diseased leaf area): 6%; PHAKPA (F129L) Disease level (%) P2 at 4 ppm [10, 15]: 1%; % PHAKPA (F129L) Disease level P2 at 4 ppm [10]: 4%; % PHAKPA (F129L) Disease level P2 at 16 ppm [10]: 0%; Fungal growth (%) MONGNI [12]: 54%; % PHAKPA (F129L) Disease level P6 at 4 ppm [11]: 5%; % PHAKPA (F129L) Disease level P6 at 16 ppm [11]: 0%; Fungal growth (%) LEPTNO [5]: 70%
CO/N=C(/C(=O)OC)c1cccc(C)c1CO/N=C(\SC)c1cccc(Cl)c1 [drawing 963] |  |  |  |  | 88% | 62% | 57% | 95% | 
CO/N=C(/C(=O)OC)c1cccc(C)c1CO/N=C(\OC)c1cccc(C)c1 [drawing 954] | 81% |  | 93% |  | 65% | 67% | 53% |  | 
CNC(=O)/C(=N/OC)c1cccc(C)c1CO/N=C(\OC)c1cccc(C(F)(F)F)c1 [drawing 948] |  |  |  |  |  | 60% |  | 80% | 
